Experiment: Bioequivalence study of fixed combination versus free combination, single dose, crossover
Set-up: species or system human
Conditions: in vivo
Description: Pharmacokinetic measurements were performed on blood collected from each subject. […] The PK parameters were determined in plasma, using non-compartmental methods.

Compound	intra-subject coefficient of variation (CV) for AUC0-inf of aliskiren [%]	intra-subject coefficient of variation (CV) for AUC0-tlast of aliskiren [%]	intra-subject coefficient of variation (CV) for Cmax of aliskiren [%]	intra-subject CV for AUC0-flast of valsartan [%]	intra-subject CV for AUC0-inf of valsartan [%]	intra-subject CV for Cmax of valsartan [%]
COCCCOc1cc(C[C@@H](C[C@H](N)[C@@H](O)C[C@H](C(=O)NCC(C)(C)C(N)=O)C(C)C)C(C)C)ccc1OC [Aliskiren, 2(S),4(S),5(S),7(S)—N-(3-amino-2,2-dimethyl-3-oxopropyl)-2,7-di(1-methylethyl)-4-hydroxy-5-amino-8-[4-methoxy-3-(3-methoxy-propoxy)phenyl]-octanamide]	33.19	33.98	51.90			
CCCCC(=O)N(Cc1ccc(-c2ccccc2-c2nnn[nH]2)cc1)[C@H](C(=O)O)C(C)C [Valsartan]				28.56	28.33	40.37

Source: US20120003308A1, “Pharmaceutical Composition Comprising Aliskiren” (priority 2009, published 2012)
